# Results: patent US10934263B2, “Charged ion channel blockers and methods for use” (Nocion Therapeutics, Inc., priority 2019, dated 2021)
# “And” between values parts separate entries of the source, which are not always exact repeats. Equal entries are not always repeated.
# How the values were obtained:
# [1] = PAMPA membrane permeability assay; type: in vitro ADME; conditions: PAMPA permeability coefficient, GIT lipid, buffer pH 7.4, 4 hours incubation
# Procedure, shortened: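 Passive permeability across GIT lipid-coated artificial membrane; compounds at 50 μM in pH 7.4 buffer in donor wells, incubated 4 h. Donor, acceptor and reference concentrations read by UV spectroscopy, permeability coefficient calculated from spectral AUCs.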
# NaV1.7 [2] = target: T1, NaV1.7 (Homo sapiens, UniProt Q15858); experiment: Automated patch clamp (Qube 384), external block of NaV1.7 in HEK293 cells; type: cell-based; conditions: compound in external solution, read-out: Nav1.7 Extracellular Inhibition (IC50)
# T1 construct: expressed in transfected cells; tetracycline-inducible, kept under hygromycin and blasticidin
# T1 sequence (Q15858 whole entry): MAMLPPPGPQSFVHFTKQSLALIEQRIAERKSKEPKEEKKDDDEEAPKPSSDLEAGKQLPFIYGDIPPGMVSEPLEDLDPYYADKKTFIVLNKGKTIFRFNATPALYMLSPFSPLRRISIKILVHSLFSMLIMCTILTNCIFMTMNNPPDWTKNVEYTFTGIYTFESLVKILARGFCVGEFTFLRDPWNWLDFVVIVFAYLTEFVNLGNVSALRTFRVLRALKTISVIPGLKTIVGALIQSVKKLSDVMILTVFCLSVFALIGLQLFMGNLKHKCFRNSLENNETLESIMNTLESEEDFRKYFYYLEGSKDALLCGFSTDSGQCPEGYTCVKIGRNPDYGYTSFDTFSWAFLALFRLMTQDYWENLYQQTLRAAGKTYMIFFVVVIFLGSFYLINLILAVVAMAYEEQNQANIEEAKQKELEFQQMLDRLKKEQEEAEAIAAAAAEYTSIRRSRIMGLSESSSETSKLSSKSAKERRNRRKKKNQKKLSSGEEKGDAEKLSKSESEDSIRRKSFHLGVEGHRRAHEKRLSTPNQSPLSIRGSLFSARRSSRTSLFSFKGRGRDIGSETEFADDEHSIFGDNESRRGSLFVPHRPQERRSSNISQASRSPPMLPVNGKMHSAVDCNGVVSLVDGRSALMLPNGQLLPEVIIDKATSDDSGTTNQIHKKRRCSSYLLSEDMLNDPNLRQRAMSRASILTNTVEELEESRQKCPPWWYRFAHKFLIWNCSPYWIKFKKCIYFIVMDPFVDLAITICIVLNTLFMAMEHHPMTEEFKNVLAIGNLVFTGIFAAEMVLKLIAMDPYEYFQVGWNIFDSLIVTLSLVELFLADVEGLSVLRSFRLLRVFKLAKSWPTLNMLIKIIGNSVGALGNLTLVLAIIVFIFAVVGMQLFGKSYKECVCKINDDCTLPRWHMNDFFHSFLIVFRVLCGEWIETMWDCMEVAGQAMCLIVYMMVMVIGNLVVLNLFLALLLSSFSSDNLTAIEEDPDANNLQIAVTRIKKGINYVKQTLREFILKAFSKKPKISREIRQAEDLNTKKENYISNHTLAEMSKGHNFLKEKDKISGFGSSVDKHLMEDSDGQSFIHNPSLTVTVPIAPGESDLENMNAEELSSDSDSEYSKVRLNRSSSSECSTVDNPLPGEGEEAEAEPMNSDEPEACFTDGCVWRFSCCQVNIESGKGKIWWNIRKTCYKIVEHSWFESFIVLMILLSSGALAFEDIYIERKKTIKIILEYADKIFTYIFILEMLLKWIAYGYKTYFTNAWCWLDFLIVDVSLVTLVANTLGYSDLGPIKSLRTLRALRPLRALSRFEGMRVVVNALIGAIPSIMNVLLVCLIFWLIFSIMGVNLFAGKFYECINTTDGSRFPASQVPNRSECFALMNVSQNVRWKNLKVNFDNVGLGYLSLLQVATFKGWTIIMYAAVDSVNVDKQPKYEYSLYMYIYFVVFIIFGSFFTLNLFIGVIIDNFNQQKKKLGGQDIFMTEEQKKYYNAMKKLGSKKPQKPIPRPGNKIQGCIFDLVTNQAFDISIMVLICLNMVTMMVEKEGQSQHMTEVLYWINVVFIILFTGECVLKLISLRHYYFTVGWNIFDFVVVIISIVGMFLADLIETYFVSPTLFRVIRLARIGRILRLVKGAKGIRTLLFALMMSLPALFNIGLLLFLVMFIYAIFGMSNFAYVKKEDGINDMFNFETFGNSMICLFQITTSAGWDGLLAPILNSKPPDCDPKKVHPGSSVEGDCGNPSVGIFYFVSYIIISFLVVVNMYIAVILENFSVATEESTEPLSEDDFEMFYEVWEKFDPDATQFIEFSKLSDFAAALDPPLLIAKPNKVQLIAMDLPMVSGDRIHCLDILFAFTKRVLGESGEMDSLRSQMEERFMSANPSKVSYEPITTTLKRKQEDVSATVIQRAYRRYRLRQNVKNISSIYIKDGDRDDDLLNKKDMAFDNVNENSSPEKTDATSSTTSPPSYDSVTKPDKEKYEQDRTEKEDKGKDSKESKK
# Description: (§1) NaV1.7 was expressed in HEK293 cells upon induction with tetracycline. Cells were cultured in DMEM containing 10% dialyzed Fetal Bovine Serum (VWR, Radnor, Pa.), 1% Glutamax (VWR, Radnor, Pa.), 1% Penicillin-Streptomycin (VWR, Radnor, Pa.), 100 mg/L Hygromycin (Thermo Fisher Scientific, Waltham, Mass. and 5 mg/L Blasticidin (Alfa Aesar, Haverhill, Mass.). Cells were grown and maintained at 37° C. in a humidified environment containing 10% CO2 in air. Cells were detached from the culture flask for passage and harvested using 0.05% Trypsin-EDTA (Thermo Fisher Scientific, Waltham, Mass.). To induce NaV1.7, cells were induced with tetracycline (0.1-1 μg/mL, IBI Scientific, Peosta, Iowa) the day before recording.
# (§2) Before experiments, cells were washed with DPBS (VWR, Radnor, Pa.), digested with Detachin (VWR Radnor, Pa.) and then triturated 10 times in CHO Serum-Free Media (VWR Radnor, Pa.) to resuspend the cells and to break apart cell aggregates. Cells were counted and the final concentration was set at 2-5 million cells per mL.
# (§3) The intracellular solution contained the following: 140 mM CsF, 1 mM/5 mM EGTA/CsOH, 10 mM HEPES, 10 mM NaCl, adjusted to pH 7.3 with CsOH, and osmolality to 320 with sucrose. The external solution contained the following: 145 mM NaCl, 4 mM KCl, 1 mM MgCl2, 2 mM CaCl2, 10 mM HEPES, 10 mM Glucose, adjusted to pH 7.4 with CsOH and osmolality to 305 with sucrose. All chemicals are from Sigma-Aldrich, St. Louis, Mo. In order to test the degree of internal block by test compounds, the compounds were dissolved in internal solution at the indicated test concentration. […] In order to test the degree of external block by test compounds the compounds were dissolved in external solution at the indicated test concentration.
# (§4) Automated Patch Clamps were performed on Qube 384 (Sophion Bioscience, Woburn Mass.) with multihole Qchips at a temperature setting of 22 degrees. The whole cells configuration was formed with default Qube seal and break-in parameter. The membrane potential was held at −100 mV before the voltage protocol began. Two voltage protocols were followed.
# (§5) Step 1: Cells were held at −100 mV with a depolarized pulse to −20 mV for 10 ms, the interval was set at 5 s. Currents were corrected by default leak subtraction from every pulse. The duration was set at 5 mins.
# (§6) Step 2: Cells were held at −100 mV with a depolarized pulse to −20 mV for 10 ms. The frequency was 5 Hz. Currents were corrected by leak subtraction calculated before step 2. The duration was set at 4 mins.
# After Step 2, the external solution was changed with solutions containing test compounds. Qchips were held at −100 mV without pulsing. The total solution switching time was 8 minutes. After the external solution exchange, cells were recorded using the same procedure as step 2 for 10 minutes.
# Data analysis was performed by Sophion Analyzer. Data were corrected with control cells (Non-Drug). The IC50 data were plotted with DR-plots/Hill function (a dose-response plot with a Hill fit).
# NaV1.7 [3] = target: T1, NaV1.7; experiment: Automated patch clamp (Qube 384), internal block of NaV1.7 in HEK293 cells; type: cell-based; conditions: compound in internal solution, read-out: Nav1.7 Intracellular Inhibition (IC50)
# Description: as §1, §2, §3, §4, §5, §6
# After Step 2, the Qchip was removed from the recording chamber. The internal solution was changed with solutions containing test compounds. Qchips were held at −100 mV without pulsing after being replaced in the recording chamber. The total solution switching time was 8 minutes. After the internal solution exchange, Cells were recorded and step 2 for repeated for 10 minutes.
# Data analysis was performed by Sophion Analyzer. Cells were filtered with minimum 50 MOhm seal resistance and minimum 5 nA starting current. The rundown of the currents was corrected with control cells (Non-Drug). The remaining was calculated by averaging last 3 points in the end of experiments. The base line was calculated as the average of last 3 points of Step 2. IC50 curves were plotted with DR-plots/Hill function (a dose-response plot with a Hill fit). Data analysis was performed by Sophion Analyzer.
Compound,PAMPA (10^−6 cm/s) [1],IC50 (NaV1.7 [2]),IC50 (NaV1.7 [3]) [µM]
CCOC(=O)Cn1cc(C)c[n+]1CC(=O)Nc1c(C)cccc1C [Compound 76],+ (<0.1 10^−6 cm/s),> 100 µM,3 to 10
COC(=O)c1c(F)c[n+](CC(=O)Nc2c(C)cccc2C)cc1F [Compound 89],+ (<0.1 10^−6 cm/s),> 100 µM,3 to 10
Cc1cccc(C)c1NC(=O)C[n+]1cccc(S(C)(=O)=O)c1 [Compound 46],+ (<0.1 10^−6 cm/s),10 to 30 µM,3 to 10
Cc1cccc(C)c1NC(=O)C[n+]1cccn1CC#N [Compound 69],+ (<0.1 10^−6 cm/s),> 100 µM,10 to 30
CCOC(=O)c1cc(C)[n+](CC(=O)Nc2c(C)cccc2C)n1C [Compound 84],+ (<0.1 10^−6 cm/s),> 100 µM,3 to 10
CCn1c(C)cc[n+]1CC(=O)Nc1c(C)cccc1C [Compound 104],+ (<0.1 10^−6 cm/s),> 100 µM,1 to 3
CCCn1ccc(C)[n+]1CC(=O)Nc1c(C)cccc1C [Compound 101],+ (<0.1 10^−6 cm/s),> 100 µM,3 to 10
Cc1cccc(C)c1NC(=O)C(CC(C)C)[n+]1ccccc1 (stereo not drawn) [Compound 108],++ (0.1-2.0 10^−6 cm/s),> 100 µM,1 to 3
CCNc1ccc[n+](CC(=O)Nc2c(C)cccc2C)c1 [Compound 50],+ (<0.1 10^−6 cm/s),30 to 100 µM and > 100 µM,1 to 3
Cc1cccc(C)c1NC(=O)C[n+]1cc(OCc2ccccc2)ccc1Cl [Compound 103],+ (<0.1 10^−6 cm/s),30 to 100 µM,3 to 10
Cc1cccc(C)c1NC(=O)C[n+]1cc2ccccc2n1C [Compound 54],++ (0.1-2.0 10^−6 cm/s),30 to 100 µM,3 to 10
COc1cc(OC)c[n+](CC(=O)Nc2c(C)cccc2C)c1 [Compound 98],+ (<0.1 10^−6 cm/s),> 100 µM,1 to 3
CCCCn1ccc[n+]1CC(=O)Nc1c(C)cccc1C [Compound 83],+ (<0.1 10^−6 cm/s),> 100 µM,1 to 3
Cc1cccc(C)c1NC(=O)C(Cc1ccccc1)[n+]1ccccc1 (stereo not drawn) [Compound 106],+ (<0.1 10^−6 cm/s),> 100 µM,1 to 3
Cc1cccc(C)c1NC(=O)C[n+]1cccn1CC1CC1 [Compound 73],+ (<0.1 10^−6 cm/s),> 100 µM,1 to 3
CCCn1c(C)cc[n+]1CC(=O)Nc1c(C)cccc1C [Compound 81],+ (<0.1 10^−6 cm/s),> 100 µM,1 to 3

# Results, then the molecule that gave them:
PAMPA (10^−6 cm/s) [1],IC50 (NaV1.7 [2]),IC50 (NaV1.7 [3]) [µM],Compound
+ (<0.1 10^−6 cm/s),> 100 µM,< 1,Cc1cccc(C)c1NC(=O)C[n+]1cccn1C1CCCC1 [Compound 71]
+ (<0.1 10^−6 cm/s),> 100 µM,1 to 3,CCn1ccc(C)[n+]1CC(=O)Nc1c(C)cccc1C [Compound 95]
++ (0.1-2.0 10^−6 cm/s),30 to 100 µM,1 to 3,Cc1cccc(C)c1NC(=O)C[n+]1cccc(C(F)(F)F)c1 [Compound 66]
++ (0.1-2.0 10^−6 cm/s),> 100 µM,1 to 3,CNC(=O)Cc1ccc[n+](CC(=O)Nc2c(C)cccc2C)c1 [Compound 33]
++ (0.1-2.0 10^−6 cm/s),> 100 µM,< 1,Cc1cccc(C)c1NC(=O)C[n+]1cccc(N2CCCC2)c1 [Compound 51]
+ (<0.1 10^−6 cm/s),10 to 30 µM,1 to 3,Cc1cccc(C)c1NC(=O)C[n+]1cccc(S(=O)(=O)N(C)C)c1 [Compound 47]
++ (0.1-2.0 10^−6 cm/s),< 10 µM,< 1,Cc1cccc(C)c1NC(=O)C[n+]1cccc(Cc2ccccc2)c1 [Compound 34]
+ (<0.1 10^−6 cm/s),30 to 100 µM,< 1,Cc1cccc(C)c1NC(=O)C[n+]1c(C)cc(C)n1C [Compound 94]
+ (<0.1 10^−6 cm/s),> 100 µM,< 1,Cc1cccc(C)c1NC(=O)Cn1ccc[n+]1CC(=O)Nc1c(C)cccc1C [Compound 109]
+ (<0.1 10^−6 cm/s),10 to 30 µM,< 1,Cc1cccc(C)c1NC(=O)C[n+]1cc(F)cc(-c2ccccc2)c1 [Compound 77]
+ (<0.1 10^−6 cm/s),> 100 µM,< 1,CCOC(=O)CCCn1ccc[n+]1CC(=O)Nc1c(C)cccc1C [Compound 75]
